In the NIST ThermoML archive (doi:10.1021/acs.jced.8b00591):

Experiment: xn = mol fraction of the nth substance listed
Details: 101.3 kPa, Liquid; for viscosity: Falling or rolling sphere viscometry; for mass density: Vibrating tube method

CCCC[n+]1ccn(C)c1.O=S(=O)([N-]S(=O)(=O)C(F)(F)F)C(F)(F)F + COC(=O)OC
Details | mass density [kg/m3] | viscosity [mPa·s]
288.15 K, x1 = 0.0898 | 1178.03 | 1.605
288.15 K, x1 = 0.1882 | 1250.71 | 3.207
288.15 K, x1 = 0.2749 | 1295.36 | 5.396
288.15 K, x1 = 0.3754 | 1334.26 | 9.186
288.15 K, x1 = 0.472 | 1362.15 | 14.3
288.15 K, x1 = 0.5745 | 1385.8 | 22.53
288.15 K, x1 = 0.673 | 1404.16 | 32.06
288.15 K, x1 = 0.7799 | 1419.88 | 44.52
288.15 K, x1 = 0.8948 | 1434.65 | 61.53
288.15 K, x1 = 1 | 1445.66 | 78.02
293.15 K, x1 = 0.0898 | 1172.07 | 1.473
293.15 K, x1 = 0.1882 | 1245.1 | 2.886
293.15 K, x1 = 0.2749 | 1289.95 | 4.762
293.15 K, x1 = 0.3754 | 1329.02 | 7.93
293.15 K, x1 = 0.472 | 1357.02 | 12.12
293.15 K, x1 = 0.5745 | 1380.77 | 18.87
293.15 K, x1 = 0.673 | 1399.14 | 26.3
293.15 K, x1 = 0.7799 | 1414.97 | 35.81
293.15 K, x1 = 0.8948 | 1429.79 | 48.74
293.15 K, x1 = 1 | 1440.84 | 61.32
298.15 K, x1 = 0.0898 | 1166.07 | 1.365
298.15 K, x1 = 0.1882 | 1239.48 | 2.611
298.15 K, x1 = 0.2749 | 1284.55 | 4.235
298.15 K, x1 = 0.3754 | 1323.78 | 6.922
298.15 K, x1 = 0.472 | 1351.9 | 10.39
298.15 K, x1 = 0.5745 | 1375.74 | 16.3
298.15 K, x1 = 0.673 | 1394.18 | 21.86
298.15 K, x1 = 0.7799 | 1410.07 | 29.38
298.15 K, x1 = 0.8948 | 1424.93 | 39.46
298.15 K, x1 = 1 | 1436.01 | 48.93
303.15 K, x1 = 0.0898 | 1160.05 | 1.263
303.15 K, x1 = 0.1882 | 1233.85 | 2.376
303.15 K, x1 = 0.2749 | 1279.14 | 3.797
303.15 K, x1 = 0.3754 | 1318.55 | 6.1
303.15 K, x1 = 0.472 | 1346.78 | 8.998
303.15 K, x1 = 0.5745 | 1370.71 | 14
303.15 K, x1 = 0.673 | 1389.23 | 18.59
303.15 K, x1 = 0.7799 | 1405.18 | 24.46
303.15 K, x1 = 0.8948 | 1420.08 | 32.86
303.15 K, x1 = 1 | 1431.21 | 39.84
308.15 K, x1 = 0.0898 | 1154.02 | 1.173
308.15 K, x1 = 0.1882 | 1228.22 | 2.176
308.15 K, x1 = 0.2749 | 1273.73 | 3.428
308.15 K, x1 = 0.3754 | 1313.32 | 5.404
308.15 K, x1 = 0.472 | 1341.67 | 7.885
308.15 K, x1 = 0.5745 | 1365.7 | 11.98
308.15 K, x1 = 0.673 | 1384.29 | 16.17
308.15 K, x1 = 0.7799 | 1400.31 | 20.58
308.15 K, x1 = 0.8948 | 1415.26 | 27.73
308.15 K, x1 = 1 | 1426.43 | 32.91
313.15 K, x1 = 0.0898 | 1147.98 | 1.095
313.15 K, x1 = 0.1882 | 1222.58 | 2.002
313.15 K, x1 = 0.2749 | 1268.32 | 3.113
313.15 K, x1 = 0.3754 | 1308.09 | 4.822
313.15 K, x1 = 0.472 | 1336.58 | 6.959
313.15 K, x1 = 0.5745 | 1360.7 | 10.3
313.15 K, x1 = 0.673 | 1379.37 | 14.01
313.15 K, x1 = 0.7799 | 1395.44 | 17.54
313.15 K, x1 = 0.8948 | 1410.45 | 23.58
313.15 K, x1 = 1 | 1421.66 | 27.56
318.15 K, x1 = 0.0898 | 1141.93 | 1.022
318.15 K, x1 = 0.1882 | 1216.94 | 1.849
318.15 K, x1 = 0.2749 | 1262.92 | 2.837
318.15 K, x1 = 0.3754 | 1302.88 | 4.332
318.15 K, x1 = 0.472 | 1331.49 | 6.189
318.15 K, x1 = 0.5745 | 1355.71 | 8.913
318.15 K, x1 = 0.673 | 1374.45 | 12.1
318.15 K, x1 = 0.7799 | 1390.59 | 15.2
318.15 K, x1 = 0.8948 | 1405.67 | 19.93
318.15 K, x1 = 1 | 1416.91 | 23.33
323.15 K, x1 = 0.0898 | 1135.85 | 0.958
323.15 K, x1 = 0.1882 | 1211.3 | 1.719
323.15 K, x1 = 0.2749 | 1257.51 | 2.6
323.15 K, x1 = 0.3754 | 1297.67 | 3.943
323.15 K, x1 = 0.472 | 1326.4 | 5.54
323.15 K, x1 = 0.5745 | 1350.73 | 7.757
323.15 K, x1 = 0.673 | 1369.55 | 10.53
323.15 K, x1 = 0.7799 | 1385.74 | 13.21
323.15 K, x1 = 0.8948 | 1400.88 | 17.01
323.15 K, x1 = 1 | 1412.17 | 19.97
328.15 K, x1 = 0.0898 | 1129.76 | 0.899
328.15 K, x1 = 0.1882 | 1205.65 | 1.588
328.15 K, x1 = 0.2749 | 1252.1 | 2.394
328.15 K, x1 = 0.3754 | 1292.46 | 3.59
328.15 K, x1 = 0.472 | 1321.33 | 4.994
328.15 K, x1 = 0.5745 | 1345.75 | 6.772
328.15 K, x1 = 0.673 | 1364.66 | 9.191
328.15 K, x1 = 0.7799 | 1380.9 | 11.54
328.15 K, x1 = 0.8948 | 1396.12 | 14.93
328.15 K, x1 = 1 | 1407.45 | 17.41
